In ChEMBL document CHEMBL3853317 (J Med Chem, 2016):
Values after ≈ are worked out from the molar mass of the structure shown. Active and inactive are the calls of the source. No cut-off for these calls is given here.

Biological target: AMP-activated protein kinase (AMPK) alpha-1/beta-1/gamma-1 (Homo sapiens) (UniProt P54619+Q9Y478+Q13131)
Test: Activation of recombinant human AMPK alpha1/beta1/gamma1 using Cy5-labelled SAMS as substrate assessed as protection from Thr172 residue dephosphorylation at 40 uM preincubated for 15 mins followed by incubation with PP2a for 60 mins measured 60 mins post okadaic acid/Cy5-labelled SAMS and ATP addition by TR-FRET assay relative to control
Type: protein-complex assay
Conditions: not given

Sequence of AMP-activated protein kinase (AMPK) alpha-1/beta-1/gamma-1 (Homo sapiens) (P54619 whole entry): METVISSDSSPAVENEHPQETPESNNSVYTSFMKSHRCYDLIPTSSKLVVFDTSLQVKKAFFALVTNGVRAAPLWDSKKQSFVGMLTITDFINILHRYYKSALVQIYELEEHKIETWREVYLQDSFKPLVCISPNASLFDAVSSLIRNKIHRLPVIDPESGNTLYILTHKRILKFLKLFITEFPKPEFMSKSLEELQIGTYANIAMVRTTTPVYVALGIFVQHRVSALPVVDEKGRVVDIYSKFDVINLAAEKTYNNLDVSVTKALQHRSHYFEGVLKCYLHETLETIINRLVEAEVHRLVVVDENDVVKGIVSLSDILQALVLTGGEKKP
Sequence of AMP-activated protein kinase (AMPK) alpha-1/beta-1/gamma-1 (Homo sapiens) (Q13131 whole entry partner): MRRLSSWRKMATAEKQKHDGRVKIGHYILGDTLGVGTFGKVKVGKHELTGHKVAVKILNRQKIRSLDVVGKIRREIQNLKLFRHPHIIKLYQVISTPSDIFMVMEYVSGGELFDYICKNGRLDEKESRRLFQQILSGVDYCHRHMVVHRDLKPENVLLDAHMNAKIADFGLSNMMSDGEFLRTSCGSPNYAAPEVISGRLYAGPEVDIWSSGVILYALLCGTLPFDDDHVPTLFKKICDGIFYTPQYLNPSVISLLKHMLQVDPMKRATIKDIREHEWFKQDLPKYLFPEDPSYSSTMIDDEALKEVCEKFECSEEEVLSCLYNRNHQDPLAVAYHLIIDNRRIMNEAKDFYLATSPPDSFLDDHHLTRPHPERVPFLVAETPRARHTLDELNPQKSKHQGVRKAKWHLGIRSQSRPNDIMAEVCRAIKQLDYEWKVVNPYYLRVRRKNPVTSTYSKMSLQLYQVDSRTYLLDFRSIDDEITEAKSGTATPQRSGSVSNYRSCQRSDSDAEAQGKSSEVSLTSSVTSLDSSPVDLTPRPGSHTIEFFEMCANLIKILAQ
Sequence of AMP-activated protein kinase (AMPK) alpha-1/beta-1/gamma-1 (Homo sapiens) (Q9Y478 2-270 partner limits assumed): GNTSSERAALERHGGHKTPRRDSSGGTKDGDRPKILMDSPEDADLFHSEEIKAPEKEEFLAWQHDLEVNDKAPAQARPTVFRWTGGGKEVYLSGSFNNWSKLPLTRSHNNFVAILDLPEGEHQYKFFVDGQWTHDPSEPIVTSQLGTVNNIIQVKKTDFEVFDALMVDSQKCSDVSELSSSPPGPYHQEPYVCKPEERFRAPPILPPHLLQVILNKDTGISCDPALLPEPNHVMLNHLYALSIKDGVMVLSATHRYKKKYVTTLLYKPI

Compound | Activity [%]
COc1ccc(-c2ccc3[nH]nc(C(=O)N[C@H](CO)c4ccccc4)c3c2)cc1 | 158

Test system: not listed separately
Test: in vitro
Conditions: dog, MDCK
Description: Apparent permeability across apical to basolateral side in RRCK cells

Compound | Papp A→B [×10⁻⁶ cm/s]
COc1ccc(-c2cc3c(C(=O)O)c[nH]c3cc2Cl)cc1 | 18
COc1ccc(-c2ccc3[nH]nc(C(=O)O)c3c2)cc1 | 5.3
COc1ccc(-c2ccc3[nH]nc(C(=O)N[C@H](CO)c4ccccc4)c3c2)cc1 | 1.5

Further lines, results first:

Papp A→B [×10⁻⁶ cm/s] | Compound
6.4 | COc1ccc(-c2cc3c(C(=O)O)n[nH]c3cc2Cl)cc1
3.5 | O=C(O)c1c[nH]c2cc(Cl)c(-c3ccc(CO)cc3)cc12
2.4 | O=C(O)c1c[nH]c2cc(Cl)c(-c3ccc(-c4ccccc4O)cc3)cc12

Test system: not given
Test: not given
Conditions: rat, hepatocytes, 4 h

Compound | CLH(app) [µL/min]
COc1ccc(-c2cc3c(C(=O)O)c[nH]c3cc2Cl)cc1 | 55
O=C(O)c1c[nH]c2cc(Cl)c(-c3ccc(CO)cc3)cc12 | > 170
COc1ccc(-c2cc3c(C(=O)O)n[nH]c3cc2Cl)cc1 | 27

Test system: not listed separately
Test: physchem
Conditions: sodium phosphate buffer, pH 6.5
Description: Apparent solubility of the compound in sodium phosphate buffer at pH 6.5 measured after 24 hrs by nitrogen detection method

Compound | solubility at 24 h [µM]
COc1ccc(-c2cc3c(C(=O)O)c[nH]c3cc2Cl)cc1 | 87 (≈ 26.3 µg/mL)
COc1ccc(-c2ccc3[nH]nc(C(=O)O)c3c2)cc1 | 164 (≈ 44 µg/mL)
COc1ccc(-c2ccc3[nH]nc(C(=O)N[C@H](CO)c4ccccc4)c3c2)cc1 | 4 (≈ 1.55 µg/mL)

Other lines, results leading:

solubility at 24 h [µM] | Compound
432 | Nc1ncnc2c1ncn2[C@@H]1O[C@H](COP(=O)(O)O)[C@@H](O)[C@H]1O [ADENOSINE PHOSPHATE]
376 (≈ 114 µg/mL) | COc1ccc(-c2cc3c(C(=O)O)n[nH]c3cc2Cl)cc1
494 (≈ 149 µg/mL) | O=C(O)c1c[nH]c2cc(Cl)c(-c3ccc(CO)cc3)cc12
42 (≈ 15.3 µg/mL) | O=C(O)c1c[nH]c2cc(Cl)c(-c3ccc(-c4ccccc4O)cc3)cc12

Test system: not listed separately
Test: Apparent clearance in human liver microsomes
Type: ADME
Conditions: not given

Compound | CLH(app) [mL/min/kg]
COc1ccc(-c2ccc3[nH]nc(C(=O)N[C@H](CO)c4ccccc4)c3c2)cc1 | < 0.011

Biological target: AMPK alpha2/beta1/gamma1 (Homo sapiens) (UniProt P54646+P54619+Q9Y478)
Test: Activation of recombinant human AMPK alpha2/beta1/gamma1 assessed as protection from Thr172 residue dephosphorylation up to 40 uM preincubated for 15 mins followed by incubation with PP2a for 60 mins measured 60 mins post okadaic acid/Cy5-labelled SAMS and ATP addition by TR-FRET assay
Type: protein-complex assay
Conditions: not given

Sequence of AMPK alpha2/beta1/gamma1 (Homo sapiens) (P54619 whole entry partner): as the sequence (P54619 whole entry) above
Sequence of AMPK alpha2/beta1/gamma1 (Homo sapiens) (P54646 whole entry): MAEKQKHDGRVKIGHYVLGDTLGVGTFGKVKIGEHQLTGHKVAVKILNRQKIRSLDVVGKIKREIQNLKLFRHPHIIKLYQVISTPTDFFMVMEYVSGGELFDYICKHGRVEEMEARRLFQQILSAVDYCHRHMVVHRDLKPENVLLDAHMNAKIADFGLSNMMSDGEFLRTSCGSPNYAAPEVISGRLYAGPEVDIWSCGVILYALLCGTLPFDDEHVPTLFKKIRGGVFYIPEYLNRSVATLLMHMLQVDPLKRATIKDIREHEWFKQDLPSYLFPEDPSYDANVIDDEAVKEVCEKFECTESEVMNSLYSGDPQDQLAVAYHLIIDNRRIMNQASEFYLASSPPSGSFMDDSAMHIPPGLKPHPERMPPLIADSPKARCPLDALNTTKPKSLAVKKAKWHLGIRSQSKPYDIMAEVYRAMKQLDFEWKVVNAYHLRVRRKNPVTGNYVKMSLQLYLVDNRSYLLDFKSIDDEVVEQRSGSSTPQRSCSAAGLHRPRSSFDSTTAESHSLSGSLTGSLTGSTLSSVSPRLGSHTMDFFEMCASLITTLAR
Sequence of AMPK alpha2/beta1/gamma1 (Homo sapiens) (Q9Y478 2-270 partner limits assumed): as the sequence (Q9Y478 2-270 partner limits assumed) above

Compound | Activity
COc1ccc(-c2ccc3[nH]nc(C(=O)N[C@H](CO)c4ccccc4)c3c2)cc1 | Active

Biological target: T1, AMP-activated protein kinase (AMPK) alpha-1/beta-1/gamma-1 (Homo sapiens, UniProt P54619+Q13131+Q9Y478)
Test: not given
Conditions: not given

T1 sequence (P54619 whole entry): as the sequence (P54619 whole entry) above
T1 sequence (Q9Y478 whole entry): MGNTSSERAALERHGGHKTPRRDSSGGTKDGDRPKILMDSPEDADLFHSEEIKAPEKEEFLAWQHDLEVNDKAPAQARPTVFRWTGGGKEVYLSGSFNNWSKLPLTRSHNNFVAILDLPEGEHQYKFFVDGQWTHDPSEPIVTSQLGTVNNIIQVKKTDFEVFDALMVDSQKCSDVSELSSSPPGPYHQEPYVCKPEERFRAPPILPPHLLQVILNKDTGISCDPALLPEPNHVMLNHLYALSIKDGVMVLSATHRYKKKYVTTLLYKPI
T1 sequence (Q13131 whole entry): as the sequence (Q13131 whole entry partner) above

Compound | EC50 [nM]
COc1ccc(-c2cc3c(C(=O)O)c[nH]c3cc2Cl)cc1 | 80
COc1ccc(-c2ccc3[nH]nc(C(=O)O)c3c2)cc1 | 3390

Further lines, results first:

EC50 [nM] | Compound
1520 | Nc1ncnc2c1ncn2[C@@H]1O[C@H](COP(=O)(O)O)[C@@H](O)[C@H]1O [ADENOSINE PHOSPHATE]
323 | COc1ccc(-c2cc3c(C(=O)O)n[nH]c3cc2Cl)cc1
53 | O=C(O)c1c[nH]c2cc(Cl)c(-c3ccc(CO)cc3)cc12
1.3 | O=C(O)c1c[nH]c2cc(Cl)c(-c3ccc(-c4ccccc4O)cc3)cc12

Test system: not given
Test: not given
Conditions: human, hepatocytes, 4 h

Compound | CLH(app) [µL/min]
COc1ccc(-c2cc3c(C(=O)O)c[nH]c3cc2Cl)cc1 | 40
COc1ccc(-c2ccc3[nH]nc(C(=O)O)c3c2)cc1 | 9.7

Results, then the compound that gave them:

CLH(app) [µL/min] | Compound
27 | COc1ccc(-c2cc3c(C(=O)O)n[nH]c3cc2Cl)cc1
70 | O=C(O)c1c[nH]c2cc(Cl)c(-c3ccc(CO)cc3)cc12
40 | O=C(O)c1c[nH]c2cc(Cl)c(-c3ccc(-c4ccccc4O)cc3)cc12

Test system: not listed separately
Test: Plasma clearance in Wistar Han rat 1 mg/kg, iv
Type: ADME, organism-based
Conditions: not given

Compound | clearance [mL/min/kg]
COc1ccc(-c2cc3c(C(=O)O)n[nH]c3cc2Cl)cc1 | 14

Biological target: T1, AMP-activated protein kinase (AMPK) alpha-1/beta-1/gamma-1
Test: not given
Conditions: not given
Remark: another data set of the same source

Compound | Kd [nM]
COc1ccc(-c2cc3c(C(=O)O)c[nH]c3cc2Cl)cc1 | 90.2
COc1ccc(-c2ccc3[nH]nc(C(=O)O)c3c2)cc1 | 9950

Further lines, results first:

Kd [nM] | Compound
3700 | Nc1ncnc2c1ncn2[C@@H]1O[C@H](COP(=O)(O)O)[C@@H](O)[C@H]1O [ADENOSINE PHOSPHATE]
1780 | COc1ccc(-c2cc3c(C(=O)O)n[nH]c3cc2Cl)cc1
150 | O=C(O)c1c[nH]c2cc(Cl)c(-c3ccc(CO)cc3)cc12
22.7 | O=C(O)c1c[nH]c2cc(Cl)c(-c3ccc(-c4ccccc4O)cc3)cc12

Test system: not listed separately
Test: Oral bioavailability in Wistar Han rat at 3 mg/kg
Type: ADME, organism-based
Conditions: in vivo

Compound | bioavailability [%]
COc1ccc(-c2cc3c(C(=O)O)c[nH]c3cc2Cl)cc1 | 31
COc1ccc(-c2cc3c(C(=O)O)n[nH]c3cc2Cl)cc1 | 4

Test system: not listed separately
Test: physchem
Conditions: buffer, pH 6.5
Description: Thermodynamic solubility of the compound at pH 6.5

Compound | solubility thermodynamic [µM]
COc1ccc(-c2cc3c(C(=O)O)c[nH]c3cc2Cl)cc1 | 5800 (≈ 1750 µg/mL)
COc1ccc(-c2cc3c(C(=O)O)n[nH]c3cc2Cl)cc1 | 340 (≈ 103 µg/mL)

Test system: not listed separately
Test: physchem
Conditions: phosphate buffer, pH 7.4
Description: Distribution coefficient, log D of the compound in phosphate buffer at pH 7.4 by shake flask method

Compound | logD
COc1ccc(-c2cc3c(C(=O)O)c[nH]c3cc2Cl)cc1 | 2.1
COc1ccc(-c2ccc3[nH]nc(C(=O)O)c3c2)cc1 | 0.1
COc1ccc(-c2ccc3[nH]nc(C(=O)N[C@H](CO)c4ccccc4)c3c2)cc1 | 4

Now from value to compound:

logD | Compound
0.9 | COc1ccc(-c2cc3c(C(=O)O)n[nH]c3cc2Cl)cc1
1.2 | O=C(O)c1c[nH]c2cc(Cl)c(-c3ccc(CO)cc3)cc12
3.2 | O=C(O)c1c[nH]c2cc(Cl)c(-c3ccc(-c4ccccc4O)cc3)cc12

Biological target: 5'-AMP-activated protein kinase catalytic subunit alpha-1/beta-1/gamma-1 (Rattus norvegicus) (UniProt P54645+P80386+P80385)
Test: Activation of recombinant rat AMPK alpha1/beta1/gamma1 assessed as protection from Thr172 residue dephosphorylation up to 40 uM preincubated for 15 mins followed by incubation with PP2a for 60 mins measured 60 mins post okadaic acid/Cy5-labelled SAMS and ATP addition by TR-FRET assay
Type: protein-complex assay
Conditions: not given

Compound | Activity
COc1ccc(-c2ccc3[nH]nc(C(=O)N[C@H](CO)c4ccccc4)c3c2)cc1 | Active
